Source: ChEMBL document CHEMBL3868619, “Synthesis and biological assessment of novel N-(hydroxy/methoxy)alkyl β-enaminone curcuminoids” (Bioorg Med Chem Lett, 2016)
Values after ≈ are worked out from the molar mass of the structure shown. Active and inactive are the calls of the source. No cut-off for these calls is given here.

Tests used:
Caco-2 [1] = test: Induction of ROS generation in human Caco2 cells at 1 uM using DCFH-DA by fluorescence assay relative to control; format: functional
[2] = Cytotoxicity against human Caco2 cells assessed as decrease in cell viability after 48 hrs by MTT assay; format: functional, cell-based; conditions: Caco-2, 48 h
[3] = Solubility of the compound in methanol; format: physicochemical
HT-29 [4] = test: Induction of ROS generation in human HT-29 cells at 1 uM using DCFH-DA by fluorescence assay relative to control; format: functional
[5] = Antioxidant activity assessed as DPPH radical scavenging activity after 30 mins by spectrophotometric analysis; format: functional
[6] = Solubility of the compound in acetone; format: physicochemical
EA.hy 926 [7] = test: Induction of ROS generation in human EAhy926 cells at 10 uM using DCFH-DA by fluorescence assay relative to control; format: functional
[8] = Chemical stability of the compound sodium phosphate buffer at pH 6.8 after 24 hrs by LC-MS analysis; format: physicochemical; conditions: pH 6.8, 24 h
[9] = Solubility of the compound in ethanol; format: physicochemical
[10] = Aqueous solubility of the compound in sodium phosphate buffer at pH 6.8 after 24 hrs by shake flask method; format: physicochemical
Caco-2 [11] = test: Induction of ROS generation in human Caco2 cells at 10 uM using DCFH-DA by fluorescence assay relative to control; format: functional
HepG2 [12] = test: Induction of ROS generation in human HepG2 cells at 10 uM using DCFH-DA by fluorescence assay relative to control; format: functional
HT-29 [13] = test: Induction of ROS generation in human HT-29 cells at 10 uM using DCFH-DA by fluorescence assay relative to control; format: functional
[14] = Solubility of the compound in dimethylformamide; format: physicochemical
[15] = Cytotoxicity against CHOK1 cells assessed as decrease in cell viability after 48 hrs by MTT assay; format: toxicity, cell-based, Cricetulus griseus; conditions: Chinese hamster, CHO-K1 cells
[16] = Solubility of the compound in dimethyl sulfoxide; format: physicochemical
[17] = Cytotoxicity against human HepG2 cells assessed as decrease in cell viability after 48 hrs by MTT assay; format: functional, cell-based; conditions: HepG2, 48 h
HepG2 [18] = test: Induction of ROS generation in human HepG2 cells at 1 uM using DCFH-DA by fluorescence assay relative to control; format: functional
[19] = Cytotoxicity against human HT-29 cells assessed as decrease in cell viability after 48 hrs by MTT assay; format: functional, cell-based; conditions: HT-29, 48 h
[20] = Solubility of the compound in 2-methyl-THF; format: physicochemical
[21] = Induction of ROS generation in CHOK1 cells at 10 uM using DCFH-DA by fluorescence assay relative to control; format: cell-based, Cricetulus griseus; conditions: chinese hamster, cho-k1, 10 µM
[22] = Solubility of the compound in ethyl acetate; format: physicochemical
[23] = Cytotoxicity against human EAhy926 cells assessed as cell viability at 100 uM after 48 hrs by MTT assay relative to control; format: toxicity, cell-based, EA.hy 926; conditions: EA.hy926 cells, read-out: Activity
EA.hy 926 [24] = test: Induction of ROS generation in human EAhy926 cells at 1 uM using DCFH-DA by fluorescence assay relative to control; format: functional
[25] = Induction of ROS generation in CHOK1 cells at 1 uM using DCFH-DA by fluorescence assay relative to control; format: cell-based, Cricetulus griseus; conditions: chinese hamster, cho-k1, 1 µM
[26] = Cytotoxicity against human EAhy926 cells assessed as decrease in cell viability after 48 hrs by MTT assay; format: toxicity, cell-based, EA.hy 926; conditions: EA.hy926 cells
[27] = Aqueous solubility of the compound in sodium phosphate buffer at pH 6.8 after 90 mins by shake flask method; format: physicochemical
HepG2 [28] = test: Cytotoxicity against human HepG2 cells assessed as change in cell morphology after 48 hrs; format: functional, cell-based

SMILES	solubility [3]	EC50 [5] [µM]	solubility [6]	Stability [8]	solubility [9]	solubility thermodynamic at 24 h [10] [µM]	solubility [14]	solubility [16]	Activity (Caco-2 [1]) [%]	IC50 [2] [µM]	Activity (HT-29 [4]) [%]	Activity (EA.hy 926 [7]) [%]	Activity (Caco-2 [11]) [%]	Activity (HepG2 [12]) [%]	Activity (HT-29 [13]) [%]	IC50 at 48 h [15] [µM]	IC50 [17] [µM]	Activity (HepG2 [18]) [%]	IC50 [19] [µM]	IC50 at 48 h [26] [µM]	further results
COc1cccc2c1C(=O)c1c(O)c3c(c(O)c1C2=O)C[C@@](O)(C(=O)CO)C[C@@H]3O[C@H]1C[C@H](N)[C@H](O)[C@H](C)O1 [DOXORUBICIN]										9.4						4.2	> 75		7.4	4.2	Activity (HepG2 [28]): Active
COc1cc(/C=C/C(=O)/C=C(/C=C/c2ccc(O)c(OC)c2)NCCCO)ccc1O	Soluble	27.6	Insoluble	Stable	Soluble	56.3 (≈ 24 µg/mL)	Soluble	Soluble	93.4	75.7	98.8	102.2	91	101.5	98.8	88.5	> 100	90	> 100	> 100	solubility [20]: Insoluble; Activity [21]: 89.9%; solubility [22]: Insoluble; Activity (EA.hy 926 [24]): 114.3%; Activity [25]: 90.4%; solubility thermodynamic at 1.5 h [27]: 25.4 µM (≈ 10.8 µg/mL)
COCCCNC(=C\C(=O)/C=C/c1ccc(O)cc1)/C=C/c1ccc(O)cc1	Soluble	130	Insoluble	Stable	Soluble	14.8 (≈ 5.63 µg/mL)	Soluble	Soluble	97	24	98	98.7	89	71.6	95.7	44.9	61.9	79.5	51.9	81.9	solubility [20]: Insoluble; Activity [21]: 97%; solubility [22]: Insoluble; Activity (EA.hy 926 [24]): 107.6%; Activity [25]: 99.8%; solubility thermodynamic at 1.5 h [27]: 10.4 µM (≈ 3.97 µg/mL)

Second part, led by results:

solubility [3]	EC50 [5] [µM]	solubility [6]	Stability [8]	solubility [9]	solubility thermodynamic at 24 h [10] [µM]	solubility [14]	solubility [16]	SMILES	Activity (Caco-2 [1]) [%]	IC50 [2] [µM]	Activity (HT-29 [4]) [%]	Activity (EA.hy 926 [7]) [%]	Activity (Caco-2 [11]) [%]	Activity (HepG2 [12]) [%]	Activity (HT-29 [13]) [%]	IC50 at 48 h [15] [µM]	IC50 [17] [µM]	Activity (HepG2 [18]) [%]	IC50 [19] [µM]	IC50 at 48 h [26] [µM]	further results
Soluble	27.3	Insoluble	Stable	Soluble	12.7 (≈ 5.4 µg/mL)	Soluble	Soluble	COCCNC(=C\C(=O)/C=C/c1ccc(O)c(OC)c1)/C=C/c1ccc(O)c(OC)c1	105	> 100	86.5	121.3	75.6	66.6	92.3	63	> 100	83.8	> 100	≥ 100	solubility [20]: Insoluble; Activity [21]: 84.4%; solubility [22]: Insoluble; viability at 48 h, 100 µM [23]: 50.9%; Activity (EA.hy 926 [24]): 126.2%; Activity [25]: 94%; solubility thermodynamic at 1.5 h [27]: 16.7 µM (≈ 7.1 µg/mL)
Soluble	> 200	Insoluble	Stable	Soluble	37.9 (≈ 13.3 µg/mL)	Soluble	Soluble	O=C(/C=C(/C=C/c1ccc(O)cc1)NCCO)/C=C/c1ccc(O)cc1	98.1	57.9	94.9	99.3	87.1	83.6	90.6	66	48.4	82.7	66.2	50.2	solubility [20]: Insoluble; Activity [21]: 85.7%; solubility [22]: Insoluble; Activity (EA.hy 926 [24]): 108%; Activity [25]: 93.4%; solubility thermodynamic at 1.5 h [27]: 38.7 µM (≈ 13.6 µg/mL)
